Columns and labels:
[1] = Adjuvant arthritis (AA) rat model; format: in vivo, Lewis rats; details: rats; CCL2 240 ng daily day 0 to day 5; scored from day 10; FIG. 9
Method: Adjuvant Arthritis (AA) induction, assessment and treatment with CCL2-—AA was induced as previously described [Kannan, Theor Biol Med Model. (2005) 2:17] using 1 mg per rat of heat-killed Mt strain H37Ra (Difco). Each experimental and control group included at least eight rats. The day of AA induction was designated as day 0 and disease severity was assessed by direct observation of all four limbs in each animal. An observer blind to the experimental procedure scored AA for clinical manifestation of disease. A relative score between 0 and 4 was assigned to each limb, based on the degree of joint inflammation, redness and deformity. The maximum possible score for an individual animal was 16 [Kannan, supra].
Immediately following AA induction, rats were divided into two groups that were injected daily (from day 0 to day 5) with low dose CCL2 (240 ng in 300 μl of PBS) or PBS as control. Starting from day 10 post induction, the disease was scored as described hereinabove.
Results were presented as the mean±SEM of the difference between the two values for all the animals in each group. Experiments were repeated at least three times and produced similar results.

[2] = tested on: naive lymphocytes; experiment: Intravital microscopy of mouse subiliac LN: lymphocyte rolling and sticking in HEVs; format: in vivo, C57BL/6 mice
Method: Intravital microscopy of mouse subiliac LN—Mice were anesthetized by intraperitoneal injection of 1 mg/ml xylazine and 5 mg/ml ketamine. The right femoral artery was catheterized. The left subiliac LN was prepared for IVM as previously described [Carriere et al., Cancer Res. (2005) 65:11639-11648; M'Rini et al., J Exp Med. (2003) 198:1301-1312], and the mouse was then transferred to a customized intravital video microscopy setup (INM 100; Leica Microsystems SA, Rueil-Malmaison, France) equipped with water immersion objectives (HCX APO; Leica Microsystems SA, Rueil-Malmaison, France). Fluorescent events in the LN microcirculation were visualized and recorded by a silicon-intensified target camera (Hamamatsu Photonics, Massy, France) and stored on DVCAM video tapes (DSR-11 Sony, IEC-ASV, Toulouse, France).
For visualization of naive lymphocyte interactions with LN vascular endothelium, naïve lymphocytes obtained from single T and B cell suspensions of a control C57BL/6 pool of subiliac, axillary, brachial and mesenteric LNs were incubated in the presence or absence of CCL2 (R&D Systems, Lille, France; 1 ng/ml, 30 minutes, 37° C.), fluorescently labeled by calcein AM (Molecular Probes-Invitrogen, Cergy Pontoise, France; 0.25 microM, 5 min, 37° C.) and then injected into the right femoral artery. Cell behavior in LN venules was assessed as previously described [Carriere et al., supra; M'Rini et al., supra]. The rolling fraction was determined as the percentage of cells that rolled along the vascular lining in the total flux of cells per venule. The sticking fraction was determined as the percentage in rolling cells of cells firmly adherent for at least 10 seconds or 1 minute.

## CCL2: mammalian (e.g., human) CCL2 protein, GenBank NM_002982 / NP_002973; murine CCL2 used in the asthma model
[1]
  adjuvant arthritis disease score (max 16): significantly inhibited the onset of the disease
[2]; 30 minutes after injection of the fluorescent cells, FIGS. 5f-g
  number of firmly bound lymphocytes in the PLN venular tree: striking reduction
[2]; lymphocytes pre-treated with CCL2 1 ng/ml 30 minutes, FIG. 5b
  L-selectin mediated rolling in HEVs (rolling fraction): did not significantly alter
[2]; lymphocytes pre-treated with CCL2 1 ng/ml 30 minutes, vs control, FIG. 5c
  sticking fraction 10 seconds: comparable
[2]; lymphocytes pre-treated with CCL2 1 ng/ml 30 minutes, vs control, FIG. 5e
  percentage of cells which remained adherent 1 minute after initial arrest: severe reduction
[2]; lymphocytes pre-treated with CCL2 1 ng/ml 30 minutes, vs control, FIG. 5d
  percentage of cells which remained adherent 30 seconds after initial arrest: severe reduction
